From article PMC9412534, “Diindolylmethane Derivatives: New Selective Blockers for T-Type Calcium Channels” (Membranes, 2022)

Experiments:
CaV2.2 = target: T1, CaV2.2 (Homo sapiens, UniProt Q00975); assay: HVA N-type calcium channel FLIPR assay in SH-SY5Y cells; assay type: cell-based; details: 10 µM nifedipine present, n = 3, read-out: IC50 CaV2.2 (HVA CaVs)
T1 construct: endogenous in cells; host or cells: SH-SY5Y human neuroblastoma cells
Protocol: The human embryonic kidney 293 (HEK 293) cell lines (from Emmanuel Bourinet, Montpellier, France) stably expressing CaV3.2 or CaV3.3 were cultured under 5% carbon dioxide at 37 °C in Dulbecco’s Modified Eagle Medium (DMEM) Glutamax (Gibco, Life Technologies, Carlsbad, CA, USA) supplemented with 10% (v/v) fetal bovine serum (FBS), 100 U/mL penicillin, 100 μg/mL streptomycin (Gibco, Life Technologies, Carlsbad, CA, USA), and 750 μg/mL geneticin (G418) (Gibco, Life Technologies). The Chinese Hamster Ovary (CHO) cell lines (Emmanuel Bourinet, Montpellier, France) expressing CaV3.1 were cultured under 5% carbon dioxide at 37 °C in Alpha Minimum Essential Media (MEM) Glutamax (Gibco, Life Technologies), supplemented with 10% (v/v) fetal bovine serum (FBS) and 300 μg/mL geneticin (G418) (Gibco, Life Technologies). The human neuroblastoma SH-SY5Y cells (Victor Diaz, Goettingen, Germany) were cultured under 5% carbon dioxide at 37 °C in RPMI 1640 antibiotic-free medium (Invitrogen, Carlsbad, CA, USA), supplemented with 15% FBS and 2 mM GlutaMAX™ (Invitrogen). D-PBS (Gibco, Life Technologies) was used to wash the cells, and 0.25% Trypsin-EDTA (Gibco, Life Technologies) was used to detach cells from the flask surface. They were split in a ratio of 1:5 (ideally 1000 cells/cm^2) when they reached 70–80% confluence (every 2–3 days). Transiently transfected CaV3.1 HEK293 T cells were used in FLIPR Assays. HEK 293 T cells were cultured under 5% carbon dioxide at 37 °C in DMEM supplemented with 10% (v/v) FBS. D-PBS was used to wash the cells, and 0.25% Trypsin-EDTA was used to detach cells from the flask surface. The cells were split and seeded at 6 million cells per T175 flask, to reach 70–80% confluence after 24 h. The next day, 12 μg DNA of human CaV3.1 was incubated in 900 μL serum-free DMEM with 36 μL FuGENE HD transfection reagent (Promega Corporation, Madison, WI, USA) (1:3 DNA/Fugene ratio) for 20 min, and then the mixture was added into the cell flask slowly, drop by drop. After the transfection, the cells were cultured under 5% carbon dioxide at 37 °C for 24 h and then moved to a 28 °C incubator.
(§1) SH-SY5Y cells were seeded into 384-well black wall clear bottom plates at a density of 15,000 cells per well, resulting in 90–95% confluence after 24 h. The media were then removed from the wells and replaced with 20 μL of 10% calcium 4 dye (Molecular Devices) in physiological salt solution (PSS) (containing 5.9 mM KCl, 1.4 mM MgCl2, 10 mM HEPES, 1.2 mM NaH2 PO4, 5 mM NaHCO3, 140 mM NaCl, 11.5 mM glucose, and 1.8 mM CaCl2, pH 7.4) with 0.1% BSA. As reported, for N-type calcium channel FLIPR assays the cells were pre-incubated with 10 µM nifedipine added in the dye to ensure full inhibition of L-type calcium responses. For L-type calcium channel FLIPR assays, the cells were pre-incubated with 1 µM CVID added in the dye to ensure full inhibition of N-type calcium responses. Positive control on the first reagent plate contained 15 μL of PSS (0.1% BSA), whereas PSS (0.1% BSA) containing 1 µM CVID and 10 µM nifedipine (final concentration) was used as a negative control. The fluorescence readings were recorded and converted as described previously, and agonist containing 90 mM KCl + 5 mM CaCl2 was used in the second addition.

[1] = system: voltage-gated calcium channels (VGCC); assay: VGCC FLIPR cell-based assays, all channels (overall observation); set-up: species or system human
Protocol: HEK 293 cells stably expressing CaV3.2 or CaV3.3 were seeded into 384-well black wall clear bottom plates (Corning) at a density of 30,000 cells per well. Transiently transfected CaV3.1HEK293 T cells were seeded into 384-well black wall clear bottom plates at a density of 60,000 cells per well. Once the cells reached 90–95% confluence after 24 h, the media were removed from the wells and replaced with 20 μL of 10% calcium 4 dye (Molecular Devices, Sunnyvale, CA, USA) in HBSS-HEPES (containing 5 mM KCl, 10 mM HEPES, 140 mM NaCl, 10 mM glucose, and 0.5 mM CaCl2, pH 7.4) with 0.1% bovine serum albumin (BSA). The cells were incubated for 30 min at 37 °C in the presence of 5% carbon dioxide. Each well on the reagent plates for the first addition contained 15 μL different concentrations of compounds dissolved in HBSS-HEPES containing 0.1% BSA and <0.5% DMSO and was incubated for 20 min after loaded. Positive and negative controls contained 15 μL of HBSS-HEPES (0.1% BSA) alone. The plates were placed in the FLIPR^TETRA (Molecular Devices, Sunnyvale, CA, USA) programmed to measure maximum fluorescence intensity following a second addition of the agonist 5 mM CaCl2. The fluorescence readings were recorded and converted as described previously, and HBSS-HEPES (0.1% BSA) was used in the second addition as a negative control.
as §1

[2] = system: MCF-7, T-47D, A549 and HT-29 cells; assay: Cell viability MTT assay, four cancer cell lines (overall); assay type: cell-based, human; details: 50 µM, 72 h
Protocol: Human breast cancer cell line MCF-7 and T-47D, lung cancer cell line A549, and colon cancer cell line HT-29 were cultured under 5% carbon dioxide at 37 °C in DMEM Glutamax (Gibco, Life Technologies) supplemented with 10% (v/v) FBS. They were split in a ratio of 1:3–1:6 (ideally 2–4 × 10,000 cells/cm^2) when they reached 70–80% confluence using 0.25% Trypsin-EDTA. For cell viability MTT assay, cells were seeded into 96-well clear bottom culture plates (Corning, Lowell, MA, USA) at a density of 5 × 10^3 cells/well and settled at 37 °C for 24 h.
Seeded cells were treated with various concentrations of compounds for desired time period (24, 48 and 72 h). After the treatments, the media were removed from each well, and replaced with 25 μL of serum-free media and 25 μL of MTT Reagent (cat. no., ab211091; Abcam, Cambridge, MA, USA). The plate was then incubated at 37 °C for 3 h, and 75 μL of MTT Solvent (cat. no., ab211091; Abcam) was added into each well after incubation. The absorbance was evaluated at 590 nm. Cell-wells treated with 0.1% DMSO were used as positive control and no cell-wells were used as background control.

T1 sequence (Q00975 whole entry): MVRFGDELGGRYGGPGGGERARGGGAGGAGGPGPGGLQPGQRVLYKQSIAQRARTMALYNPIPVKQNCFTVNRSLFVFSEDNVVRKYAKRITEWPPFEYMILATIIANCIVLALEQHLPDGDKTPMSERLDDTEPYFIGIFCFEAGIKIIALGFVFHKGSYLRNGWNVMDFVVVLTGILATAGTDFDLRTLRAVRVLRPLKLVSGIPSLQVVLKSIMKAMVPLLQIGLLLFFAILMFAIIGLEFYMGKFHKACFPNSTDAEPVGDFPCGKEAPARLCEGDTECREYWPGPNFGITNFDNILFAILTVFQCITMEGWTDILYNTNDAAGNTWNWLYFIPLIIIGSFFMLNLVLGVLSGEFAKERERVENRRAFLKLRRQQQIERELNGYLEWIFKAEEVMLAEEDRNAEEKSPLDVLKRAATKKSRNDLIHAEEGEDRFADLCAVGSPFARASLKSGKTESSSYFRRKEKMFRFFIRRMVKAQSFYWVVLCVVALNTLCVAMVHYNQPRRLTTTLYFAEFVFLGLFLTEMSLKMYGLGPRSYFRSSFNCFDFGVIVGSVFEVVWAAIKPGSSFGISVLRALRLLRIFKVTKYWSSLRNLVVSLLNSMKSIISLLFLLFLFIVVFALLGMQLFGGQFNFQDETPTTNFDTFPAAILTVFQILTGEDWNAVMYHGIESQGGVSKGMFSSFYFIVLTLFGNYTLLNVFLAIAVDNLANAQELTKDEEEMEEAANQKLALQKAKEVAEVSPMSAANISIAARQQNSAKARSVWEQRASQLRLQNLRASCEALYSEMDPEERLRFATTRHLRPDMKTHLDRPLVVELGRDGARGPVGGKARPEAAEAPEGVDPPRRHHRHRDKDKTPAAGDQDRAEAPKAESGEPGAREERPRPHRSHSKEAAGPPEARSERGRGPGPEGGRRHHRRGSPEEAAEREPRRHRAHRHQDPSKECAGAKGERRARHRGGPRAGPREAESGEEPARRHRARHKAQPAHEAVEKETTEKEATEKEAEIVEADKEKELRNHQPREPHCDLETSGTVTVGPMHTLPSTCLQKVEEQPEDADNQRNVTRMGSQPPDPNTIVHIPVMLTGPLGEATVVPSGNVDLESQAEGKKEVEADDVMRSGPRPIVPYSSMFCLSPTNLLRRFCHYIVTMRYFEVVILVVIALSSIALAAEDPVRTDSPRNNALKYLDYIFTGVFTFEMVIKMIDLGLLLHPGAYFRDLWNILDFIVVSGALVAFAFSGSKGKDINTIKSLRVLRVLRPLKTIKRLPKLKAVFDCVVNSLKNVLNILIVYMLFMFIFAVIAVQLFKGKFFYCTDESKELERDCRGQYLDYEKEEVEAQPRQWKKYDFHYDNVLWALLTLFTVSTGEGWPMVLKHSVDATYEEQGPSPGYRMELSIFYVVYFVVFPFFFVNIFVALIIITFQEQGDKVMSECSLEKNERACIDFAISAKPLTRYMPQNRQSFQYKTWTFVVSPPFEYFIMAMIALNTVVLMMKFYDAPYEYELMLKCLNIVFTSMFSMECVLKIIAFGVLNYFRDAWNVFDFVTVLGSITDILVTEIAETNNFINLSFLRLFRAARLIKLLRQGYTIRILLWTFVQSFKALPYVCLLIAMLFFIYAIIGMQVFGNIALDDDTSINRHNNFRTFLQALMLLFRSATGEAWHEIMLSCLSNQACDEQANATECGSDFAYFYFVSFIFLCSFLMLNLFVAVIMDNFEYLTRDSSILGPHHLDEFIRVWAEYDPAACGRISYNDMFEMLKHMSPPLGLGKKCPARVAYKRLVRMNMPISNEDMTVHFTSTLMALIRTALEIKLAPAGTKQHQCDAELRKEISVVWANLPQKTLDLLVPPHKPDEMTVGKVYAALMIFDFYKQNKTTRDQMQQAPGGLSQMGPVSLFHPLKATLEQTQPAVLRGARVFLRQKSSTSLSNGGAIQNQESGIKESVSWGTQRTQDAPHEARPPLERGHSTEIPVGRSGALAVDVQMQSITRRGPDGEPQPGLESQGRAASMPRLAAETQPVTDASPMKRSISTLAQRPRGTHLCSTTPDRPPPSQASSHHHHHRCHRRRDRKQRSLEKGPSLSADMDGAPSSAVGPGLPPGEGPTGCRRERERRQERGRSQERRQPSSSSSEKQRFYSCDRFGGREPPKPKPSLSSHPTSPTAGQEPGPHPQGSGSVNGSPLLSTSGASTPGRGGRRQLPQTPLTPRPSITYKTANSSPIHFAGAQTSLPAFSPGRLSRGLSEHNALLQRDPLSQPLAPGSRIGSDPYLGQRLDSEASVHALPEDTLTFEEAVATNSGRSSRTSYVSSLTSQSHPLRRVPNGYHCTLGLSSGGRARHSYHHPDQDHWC
T1 sequence (P54289 25-956 partner limits assumed): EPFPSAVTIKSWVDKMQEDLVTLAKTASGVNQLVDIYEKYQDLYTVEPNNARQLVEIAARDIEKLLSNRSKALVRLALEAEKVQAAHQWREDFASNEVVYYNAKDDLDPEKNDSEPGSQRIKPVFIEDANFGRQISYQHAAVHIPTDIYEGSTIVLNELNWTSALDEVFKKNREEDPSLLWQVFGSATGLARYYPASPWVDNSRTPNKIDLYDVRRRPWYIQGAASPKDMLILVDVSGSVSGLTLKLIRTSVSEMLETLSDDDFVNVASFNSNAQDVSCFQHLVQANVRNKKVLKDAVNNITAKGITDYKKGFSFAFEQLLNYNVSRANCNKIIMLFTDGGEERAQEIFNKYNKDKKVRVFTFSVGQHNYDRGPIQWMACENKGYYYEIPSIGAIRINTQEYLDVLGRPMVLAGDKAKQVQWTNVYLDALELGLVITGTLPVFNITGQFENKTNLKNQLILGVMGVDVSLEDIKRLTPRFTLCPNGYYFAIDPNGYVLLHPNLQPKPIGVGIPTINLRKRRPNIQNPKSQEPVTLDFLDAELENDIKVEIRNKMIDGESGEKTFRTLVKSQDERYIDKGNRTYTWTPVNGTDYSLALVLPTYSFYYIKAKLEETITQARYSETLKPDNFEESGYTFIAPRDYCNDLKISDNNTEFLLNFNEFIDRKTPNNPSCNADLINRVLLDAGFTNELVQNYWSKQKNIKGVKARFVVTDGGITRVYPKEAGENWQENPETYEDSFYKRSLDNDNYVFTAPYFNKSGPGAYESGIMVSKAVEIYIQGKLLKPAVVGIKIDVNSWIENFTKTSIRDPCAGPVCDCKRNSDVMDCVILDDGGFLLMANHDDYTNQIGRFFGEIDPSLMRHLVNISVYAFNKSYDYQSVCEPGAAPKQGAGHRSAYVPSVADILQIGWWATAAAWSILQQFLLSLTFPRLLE
T1 sequence (P54289 957-1103 partner limits assumed): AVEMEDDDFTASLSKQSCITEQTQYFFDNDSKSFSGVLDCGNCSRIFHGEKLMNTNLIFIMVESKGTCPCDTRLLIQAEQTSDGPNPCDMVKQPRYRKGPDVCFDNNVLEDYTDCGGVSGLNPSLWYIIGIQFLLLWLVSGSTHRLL
T1 sequence (P54284 whole entry partner): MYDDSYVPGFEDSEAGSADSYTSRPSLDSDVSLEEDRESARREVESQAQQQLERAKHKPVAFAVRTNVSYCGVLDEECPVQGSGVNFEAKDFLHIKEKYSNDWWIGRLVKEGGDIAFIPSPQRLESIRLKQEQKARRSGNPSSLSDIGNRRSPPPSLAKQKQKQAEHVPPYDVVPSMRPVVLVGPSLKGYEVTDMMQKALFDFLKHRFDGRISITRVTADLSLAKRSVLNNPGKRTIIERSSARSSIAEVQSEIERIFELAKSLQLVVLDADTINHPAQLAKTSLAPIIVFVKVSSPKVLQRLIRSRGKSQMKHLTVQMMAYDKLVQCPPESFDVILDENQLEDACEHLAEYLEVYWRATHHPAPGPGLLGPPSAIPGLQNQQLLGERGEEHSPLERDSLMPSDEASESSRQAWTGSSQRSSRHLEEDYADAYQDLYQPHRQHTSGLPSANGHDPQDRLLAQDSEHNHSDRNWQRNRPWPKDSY

Compound | IC50 (CaV2.2) [µM] | inhibition of all the Ca2+ responses [1] | effect on cancer cell viability [2]
c1ccc2c(Cc3c[nH]c4ccccc34)c[nH]c2c1 [DIM, 3,3′-diindolylmethane, reference compound] | 56.7 ± 2.61 | – | –
O=C(c1c[nH]c2ccccc12)c1c[nH]c2ccccc12 [DIM-one, 3,3′-diindolylmethanone] | 119 ± 6.51 | – | –
O=C(c1c[nH]c2cc(Br)ccc12)c1c[nH]c2cc(Br)ccc12 [IV] | > 200 | poor inhibition | –
O=C(c1cn(Cc2ccccc2)c2ccccc12)c1cn(Cc2ccccc2)c2ccccc12 [IX, bis(1-benzyl-1H-indol-3-yl)methanone] | 82 ± 5.3 | – | did not affect cancer cell viability
